Data taken from patent US9034907B2, “Inhibitors of glutaminyl cyclase” (Probiodrug AG, priority 2007, dated 2015).

Tests used:
glutaminyl cyclase (QC) = glutaminyl cyclase (QC) (Homo sapiens (Human), UniProt Q16769); assay: QC inhibitor assay (fluorometric / spectrophotometric QC activity assay with inhibitor added); details: 30° C.
Chain of glutaminyl cyclase (QC) (Q16769 29-361): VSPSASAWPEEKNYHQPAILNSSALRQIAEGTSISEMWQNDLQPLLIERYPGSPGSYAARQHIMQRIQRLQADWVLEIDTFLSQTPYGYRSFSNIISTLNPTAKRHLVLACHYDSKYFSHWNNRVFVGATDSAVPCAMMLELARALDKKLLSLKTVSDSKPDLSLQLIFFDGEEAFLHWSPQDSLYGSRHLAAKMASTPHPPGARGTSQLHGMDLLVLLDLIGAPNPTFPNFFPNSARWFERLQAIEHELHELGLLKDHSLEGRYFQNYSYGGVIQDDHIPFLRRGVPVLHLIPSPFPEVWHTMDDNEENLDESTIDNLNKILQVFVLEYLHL
Protocol: All measurements were performed with a BioAssay Reader HTS-7000Plus for microplates (Perkin Elmer) at 30° C. QC activity was evaluated fluorometrically using H-Gln-βNA. The samples consisted of 0.2 mM fluorogenic substrate, 0.25 U pyroglutamyl aminopeptidase (Unizyme, Hørsholm, Denmark) in 0.2 M Tris/HCl, pH 8.0 containing 20 mM EDTA and an appropriately diluted aliquot of QC in a final volume of 250 μl. Excitation/emission wavelengths were 320/410 nm. The assay reactions were initiated by addition of glutaminyl cyclase. QC activity was determined from a standard curve of β-naphthylamine under assay conditions. One unit is defined as the amount of QC catalyzing the formation of 1 μmol pGlu-βNA from H-Gln-βNA per minute under the described conditions.
In a second fluorometric assay, QC was activity determined using H-Gln-AMC as substrate. Reactions were carried out at 30° C. utilizing the NOVOStar reader for microplates (BMG labtechnologies). […] The kinetic data were evaluated using GraFit software.
Samples consisted of the respective QC substrate, 0.3 mM NADH, 14 mM α-Ketoglutaric acid and 30 U/ml glutamate dehydrogenase in a final volume of 250 μl. […] All samples were measured at 30° C., using either the [sequence]luor Plus or the Sunrise (both from TECAN) reader for microplates. Kinetic data was evaluated using GraFit software. […]

| melting point [°C] | SMILES | other results |
| --- | --- | --- |
| – | O=c1c2ccccc2[nH]c(=S)n1CCCn1ccnc1 [Example 28, 2,3-dihydro-3-(3-(1H-imidazol-1-yl)propyl)-2-thioxoquinazolin-4(1H)-one] | Ki (glutaminyl cyclase (QC); competitive inhibition fit of progress curves): 0.3 µM |
| 225 to 227 | Cc1csc2c(=O)n(CCCn3ccnc3)c(=S)[nH]c12 | – |
| 118 to 120 | O=c1c2c3c(sc2[nH]c(=S)n1CCCn1ccnc1)CCCC3 | – |
| – | O=c1c2ccccc2[nH]c(=S)n1-c1ccc2[nH]cnc2c1 [Example 43, 3-(1H-benzo[d]imidazol-5-yl)-2,3-dihydro-2-thioxo-quinazolin-4(1H)-one] | IC50 (glutaminyl cyclase (QC); QC inhibition): 121 µM |
